# Laboratory results published in patent publication US20160050895A1, “TRANSGENIC NON-HUMAN ORGANISMS WITH NON-FUNCTIONAL TSPO GENES” (AUSTRALIAN NUCLEAR SCIENCE AND TECHNOLOGY ORGANIZATION, priority 2013, published 2016).
# Tests used:
# [1] = target: T1, TSPO (Mus musculus, UniProt P50637); experiment: Receptor film autoradiography of tissue sections with [3H]PK11195 and [125I]CLINDE; format: binding; parameters: Snap-frozen tissues were sectioned at 20 μm in a cryostat; from tissue; host or cells: mouse organ sections (brain, retina/eye, heart, adrenal, kidney, testis, spleen), C57BL/6 background; details: 10 μM unlabelled ligand; tissue sections from TSPO+/+ and TSPO+/- mice
# Protocol: Snap-frozen tissues were sectioned at 20 μm in a cryostat, thaw mounted on poly-L-lysine-coated slides and stored at −80° C. until day of experiment. On the day of the experiment, slides were thawed at room temperature and air dried with a cool stream of air. Total and non-specific binding were determined by incubation with 1 nM of 3H-PK11195 with or without the presence of 3 μM of PK11195 in 130 mM TRIS-HCl buffer (pH 7.4) at room temperature for 20 minutes. Following incubation, the slides were briefly dipped twice in 130 mM TRIS-HCl buffer, washed twice for 5 minutes in fresh 130 mM TRIS-HCl at room temperature. The slides were finally briefly rinsed 3 times in chilled distilled H2O, dried under a cool stream of air and allowed to air dried overnight. Sections were exposed to Kodak BioMax MR film along with tritium microscales with known activity concentrations in X-ray film cassettes. Films were developed after 33 days and digitized using a GS800 Calibrated Densitometer (Bio-Rad, Hercules, Calif., USA). Images were analysed with Quantity One imaging analysis program (Bio-Rad, Hercules, Calif. USA); to assess the level of 3H-PK11195 binding, regions of interest were drawn over the tissue and an average optical density/mm^2 was calculated. Data obtained from an individual film, subject to interfilm variations, were normalized against other films through the optical density oftritium microscales.
# The organs including brain, retina, heart, kidney and testes used for film autoradiography were dissected from wild-type (TSPO^+/+), heterozygous (TSPO^+/−), and homozygous (TSPO^−/−) mice and snap-frozen in liquid nitrogen. Cryostat organ sections at 18 μm were placed onto superfrost slides (Menzel-Glaser, Braunschweig, Germany) and stored in the dark at −20° C. for no longer than 1 week before the experiment. […] Tritium standards (Amersham Biosciences, Uppsala, Sweden) co-exposed with the organ sections on each Hyperfilm-^3H (Kodak Film) at 4° C. for 60 days, were used to quantify the autoradiographically measured binding. The hyperfilm was developed using Kodak GBX developer and fixer (Sigma Aldrich, St. Louis, Mo., U.S.A.). The hyperfilm was air-dried overnight before being scanned using the ArtixScan 1800f flatbed scanner (Microtek, Hsinchu, Taiwan), with greyscale using a magnification of 400% and an optical resolution of 2400 pixels per inch. No pre-scanning manipulation or filter was applied.
# (§1) Tissue sections from TSPO^+/+, TSPO^+/− and TSPO^−/− mice were incubated at room temperature for 20 min in 170 mM Tris-HCl pH 7.4 containing 1 nM [^3H]PK11195 (specific activity 84 Ci/mmol; Perkin Elmer, Waltham, Mass., USA), washed twice for 5 min in 170 mM Tris-HCl, rinsed with 3 dips in ice-cold MilliQ H2O, and dried. […] Displacement binding was carried out in the presence of PK11195 (10 μM), CLINDE (10 μM) and PBR-11 (10 μM).
# [2] = system: TSPO; experiment: Radioligand membrane saturation binding with 3H-PK11195; parameters: species or system mouse; details: renal tissue samples; TSPO knock-out mice
# Protocol: Tissue samples were homogenised with T25 digital Ultra-Turrax homogenizer (Ika, Wilmington, N.C., USA) at speed setting 5 or 20000 rpm in approximately 45 mL of ice-cold TRIS buffer (pH 7.4), collected by centrifugation at 48000 g and the supernatant was then discarded. The procedure was then immediately repeated, this acts as an extra wash step to remove any soluble interfering substances to radioligand binding (Byland et al. 1993). Following the second centrifugation and removal ofsupernatant the samples were resuspended in approximately 50 volumes of ice-cold TRIS buffer (pH 7.4). Samples were aliquoted stored in −80° C. until required.
# For TSPO knock-out mice studies, radioligand binding was performed using 3H-PK11195 racemate across a range of concentrations (FIG. 4). PK11195 is a TSPO specific probe. Total and non-specific binding was determined through 8 concentrations of 3H-PK11195 ranging from 0.56 nM to 20 nM. Non-specific binding was determined by the addition of 5 μM PK11195 to all concentrations of 3H-PK11195. […]
# Organs were homogenised, washed twice in ice-cold 50 mM Tris-HCl (pH 7.4) by centrifugation at 48000×g, resuspended in 50 volumes of ice-cold 50 mM Tris-HCl, and protein concentration was determined using a BCA protein assay kit (Thermo Fisher Scientific). […] Non-specific binding was determined with 5 μM PK11195. […]
# [3] = system: TSPO; experiment: Film autoradiography of brain sections after facial nerve axotomy; format: binding, mouse; details: homozygous (TSPO-/-) mice
# Text: Procedures for facial nerve axotomy were approved by the animal ethics committee at the University of Sydney. Animals were anaesthetised using Isoflurane anaesthesia. Animals were monitored for a combination of respiration, heart rate, oxygen saturation and temperature during procedures using a variety of monitoring equipment to ensure anaesthetic depth. The surgical process commenced when foot-pad or plantar reflex could no longer be elicited. The fur on the ipsilateral (right) side of the neck was shaved from the ear downwards, and the skin cleaned using 70% ethanol. A small incision (0.5-0.7 cm in length) overlying the musculature covering the stylomastoid foramen was made. The facial nerve was identified, isolated and then transected completely. The skin of incision was closed with heal-glue. […] The animals were euthanized with CO2 3 days after the axotomy and brain tissue, including facial nerve nuclei in the brain stem and cerebellum, was immediately dissected, snap-frozen in liquid nitrogen, and then stored in −80° C. freezer until the cryostat section.
# A small incision (0.5-0.7 cm) in the skin 0.5 cm dorsal and lateral to the ear was made and the facial nerve transected under an operating microscope. The incision was closed with 3M™ Vetbond™ Tissue Adhesive (St. Paul, Minn., USA). […] Mice were monitored carefully and euthanized with CO2 three days after the operation. Brains were dissected, placed in OCT, transferred to liquid nitrogen, and stored at −80° C. until cryo-sectioning.
# as §1
# [4] = system: TSPO; experiment: In vivo PET/CT imaging with [18F]PBR111; parameters: species or system mouse
# Protocol: (§2) PET scans of test mice were performed using a small-animal Inveon PET/CT scanner (Siemens, Knoxville, Tenn., USA). Before scanning, the mice were anesthetized with 5% (v/v) isoflurane and positioned in the PET/CT scanner. The isoflurane level was maintained 1-2% thereafter. The body temperature was maintained with a feedback regulated heating pad and physiologic parameters (respiration and body temperature) were monitored (BioVet; m2m Imaging Corp.) for the entire scanning period. Lacri-lube (Allergan) was placed in the mouse's eyes to prevent drying while the mouse was anesthetized. The PET scans commenced simultaneously with the tail vein injection of [^18F]PBR111 (8-18 MBq/100 μL, 0.2 nmol). After 40 min of imaging, PBR111 (1 mg/kg in 2% acetic acid-saline) was injected via tail vein to determine the non-specific accumulation in organs and imaged for further 10 minutes. Upon completion of PET scanning, mice were CT scanned for 10 minutes for anatomical information. At the end of the study the mice were euthanized immediately after imaging by cervical dislocation while the animal was still fully anaesthetised.
# (§3) Mice, anaesthetised (5% (v/v) isoflurane and maintained at 1-2%, were scanned using a small-animal Invcon PET/CT scanner (Siemens, Knoxville, Tenn., USA) according to methods described previously (Disselhorst, J. A. et al. Image-quality assessment for several positron emitters using the NEMA NU 4-2008 standards in the Siemens Inveon small-animal PET scanner. J Nucl Med 51, 610-617, doi:10.2967/jnumed.109.068858 (2010); Mattner, F. et al. Central nervous system expression and PET imaging of the translocator protein in relapsing-remitting experimental autoimmune encephalomyelitis. J Nucl Med 54, 291-298, doi: 10.2967/jnumed.112.108894 (2013)). Body temperature was maintained with a feedback regulated heating pad and respiration monitored (BioVet; m2m Imaging Corp, Cleveland, Ohio, USA). Scans started with the tail vein injection of [^18F]PBR111 (8-18 MBq/100 μL, […]). After 40 min of imaging, PBR111 (1 mg/kg in 2% acetic acid-saline) was injected to determine non-specific accumulation in organs and imaged for 10 minutes. Then, mice underwent a 10-min CT-scan for anatomical information. All PET data were corrected, normalised and reconstructed with an OSEM3D-MAP algorithm to produced PET volumes of activity concentration (kBq/ml).
# [5] = target: T1, TSPO; experiment: In vivo PET/CT imaging with [18F]PBR111; parameters: from tissue; host or cells: organs of living mice (adrenal gland, kidney, heart, liver, lung, brain)
# Protocol: as §2, §3
compound,measurement,setting,value
CCN(CC)C(=O)Cc1c(-c2ccc(I)cc2)nc2ccc(Cl)cn12 [CLINDE],competitive binding: displacement of specific binding of [125I]CLINDE and [3H]PK11195 by unlabelled ligand,[1],displaced
"CC[C@@H](C)N(C)C(=O)c1cc2ccccc2c(-c2ccccc2Cl)n1 [PK11195, 1-(2-chlorophenyl)-N-methyl-N-(1-r-methylpropyl)-3-isoquinolinecarboxamide]",binding of the TSPO-selective probe PK11195,[2],no binding
same,intensity of PK11195 binding in the cerebellum,[3],the same as the surrounding background
same,competitive binding: displacement of specific binding of [125I]CLINDE and [3H]PK11195 by unlabelled ligand,[1],displaced
CCN(CC)C(=O)Cc1c(-c2ccc(OCCC[18F])cc2)nc2ccc(Cl)cn12 [[^18F]PBR111],radiotracer observed in PET images,"[4]; TSPO knock-out (homozygous, TSPO-/-) mouse",none
same,ligand binding in PET/CT images,[4]; TSPO-/- mice,no ligand binding
same,specific binding from radioligand kinetics and displacement with cold PBR111,"[4]; TSPO-/- mice, any organs, cold PBR111 (1 mg/kg)",do not have specific binding
same,time course of radiotracer uptake,"[4]; adrenal gland, kidney, liver and heart, TSPO knock-out mice (TSPO-/-)",rapidly reaches the peak and then declines to the non-specific level
same,distribution of ligand binding in PET/CT images,[5]; TSPO+/+ and TSPO+/- mice,"in organs with known high TSPO expression, notably kidney and adrenal gland"
same,specific binding from radioligand kinetics and displacement with cold PBR111,"[5]; TSPO+/+ and TSPO+/- mice, cold PBR111 (1 mg/kg)",indicates specific binding
same,time course of radiotracer uptake,"[5]; adrenal gland, kidney and liver, wild-type mice (TSPO+/+), until PBR111 at 40 min","slowly increases, but maintains a peak level"
same,selectivity for TSPO,"[5]; in vivo, validated against TSPO-/- null background",high selectivity
same,intensity of radiotracer in PET images,[5]; wild-type mouse (TSPO+/+),high intensity
PBR-111,competitive binding: displacement of specific binding of [125I]CLINDE and [3H]PK11195 by unlabelled ligand,[1],displaced
